Target: T1, HIV-Protease (Human immunodeficiency virus type 1 group M subtype B, UniProt P04585)
T1 construct: Max-Planck-Institut für Molekulare Genetik, Berlin
Experiment: HIV protease test (cleavage of heptapeptide Ser-Phe-Asn-Phe-Pro-Gln-Ile, HPLC quantification of Ser-Phe-Asn-Phe)
Assay type: biochemical
Settings: 2 h, 37°C; for IC50: cloned HIV protease, pH ca. 6,0; for activity at 100 µM / Restakt. bei 10^-4 M: residual enzyme activity at 10^-4 M inhibitor, 100 % = mean of runs without inhibitor, pH ca. 6,0, 1 % DMSO; for activity at 100 µM: read-out: Restakt. bei 10^-4 M; for Restakt. bei 10^-4 M: 100 µM
Text: Als synthetisches Substrat ist ein Heptapeptid der Sequenz Ser-Phe-Asn-Phe-Pro-Gln-Ile geeignet. Diese Sequenz tritt im natürlichen Substrat der Protease auf und liefert bei der autokatalytischen Freisetzung nach einer Phe-Pro-Spaltung den N-terminalen Beginn der Proteasesequenz (Pro-Gln-Ile...).
Es wird eine klonierte HIV-Protease (Max-Planck-Institut für Molekulare Genetik, Berlin) benutzt. [drawing 5]
Von den Reaktionsprodukten wird Ser-Phe-Asn-Phe zur Abtrennung und quantitativen Bestimmung mittels HPLC herangezogen.
Nach 2 Stunden bei 37°C werden die Ansätze mit 225 µl HPLC-Elutionsmittel (s.u.) gestoppt. Etwa 150 µl des zentrifugierten Überstands (Eppendorf-Zentrifuge) werden in Mikrovials gefüllt. Das Injektionsvolumen für die HPLC-Trennung beträgt 20 µl. Ser-Phe-Asn-Phe wird durch Vergleich mit einem externen Standard bekannter Konzentration (0,5 µg/ 20 µl) quantitativ bestimmt und stellt die Meßgröße der Enzymaktivität (µg Tetrapeptid pro 20 µl Meßprobe) dar. Bezugswert (= 100 % Enzymaktivität) ist der Mittelwert aus 2 oder mehr Ansätzen ohne Inhibitor. Als Standard-Inhibitor wird Pepstatin A (10⁻⁴ oder 10⁻⁵ M) verwendet.
• a) Substratlösung: 2 mg Ser-Phe-Asn-Phe-Pro-Gln-Ile werden in 1 ml MGTE 15-Puffer gelöst. • b) Testsubstanzen: Diese werden 10⁻² oder 10⁻³ M in Dimethylsulfoxid (DMSO) gelöst und 1 : 40 mit MGTE 15-Puffer verdünnt; 10 µl dieser Lösung werden pro Ansatz verwendet; die Endkonzentration des Präparates beträgt 10⁻⁴ bzw. 10⁻⁵ M; die DMSO-Konzentration in allen Testansätzen ist 1 %. Für IC₅₀-Bestimmungen wird das Präparat, ausgehend von 10⁻² M, mit 100 % DMSO in der geeigneten Weise verdünnt. • c) Proteaselösung: Das Enzym wird mit MGTE 25-Puffer auf eine geeignete Konzentration verdünnt. • d) MGTE 15/25-Puffer 20 mM Morpholinoethansulfonsäure (MES) 15 (25) % (w/v) Glyzerin 0,1 % (v/v) Triton® X 100 (vgl. Merck Index 10, 6601) 5 mM EDTA 0,5 M NaCl 1 mM Dithiothreit (nur für MGTE 25) 1 mM Phenylmethylsulfonylfluorid (PMSF) Der pH-Wert soll ca. 6,0 betragen. • e) HPLC-Elutionsmittel: Eine 0,1 M Phosphorsäure-Lösung wird mit Triethylamin auf pH 2,5 eingestellt. Aus dieser Lösung wird ein Phosphorsäure-Acetonitril-Gemisch mit 22,6 Gewichts-Prozent Acetonitril hergestellt.
Säule: Radial Pak LC Cartridge, 8 mm/C18, 5 µ (der Fa. Waters, USA). Fluß: 1 ml/min Detektoreinstellung: 215 nm, 0,08 AU Zeit pro Analyse: 12 min; Retentionszeiten: Heptapeptid ca. 9,5 min, Tetrapeptid ca. 5,2 min Laufmittel: 77,4 Gew.-% 0,1 M H₃PO₄/pH 2,5 22,6 Gew.-% Acetonitril

Compound | IC50 | activity at 100 µM | Restakt. bei 10^-4 M
Iva-Thi-His-(Cyclohexylmethyl,dihydroxyboryl)methylamid [Beispiel 9] |  |  | 93%
CCC[C@H](NC(=O)[C@H](Cc1ccccc1)NC(=O)CC(C)C)C(=O)NC(CC1CCCCCCC1)B1OC(C)(C)C(C)(C)O1 (stereo partly drawn) [Beispiel 11] |  | 96% | 
CCC[C@H](NC(=O)[C@H](Cc1ccccc1)NC(=O)CC(C)C)C(=O)NC(CC1CCCCC1)B1OC(C)(C)C(C)(C)O1 (stereo partly drawn) [Beispiel 1, Iva-Phe-Nva-[Cyclohexylmethyl,(4,4,5,5-tetramethyl-1,3,2-dioxaborolan-2-yl)]methylamid] | 40 µM | 28% | 
CCCC[C@H](NC(=O)[C@H](Cc1ccccc1)NC(=O)CC(C)C)C(=O)NC(CC1CCCCC1)B1OC(C)(C)C(C)(C)O1 (stereo partly drawn) [Beispiel 2, Iva-Phe-Nle-[Cyclohexylmethyl,(4,4,5,5-tetramethyl-1,3,2-dioxaborolan-2-yl)]methylamid] |  | 74% | 
(2-Benzyl,3-t-butylsulfonyl)propionyl-Nva-(Cyclopentylmethyl,dihydroxyboryl)methylamid [Beispiel 32] | 40 µM |  | 25%
CCC[C@H](NC(=O)[C@H](Cc1ccccc1)NC(=O)CC(C)C)C(=O)NC(CC1CCCCCC1)B1OC(C)(C)C(C)(C)O1 (stereo partly drawn) [Beispiel 15, Iva-Phe-Nva- (Cycloheptylmethyl,(4,4,5,5-tetramethyl-1,3 2-dioxaborolan-2-yl)]methylamid] |  | 86% | 
CCC[C@H](NC(=O)[C@H](Cc1ccccc1)NC(=O)CC(C)C)C(=O)NC(CC1CCC(C)CC1)B1OC(C)(C)C(C)(C)O1 (stereo partly drawn) [Beispiel 14, Iva-Phe-Nva-[(4-Methylcyclohexyl)methyl,(4,4,5,5-tetramethyl-1,3,2-dioxaborolan-2-yl)]methylamid] |  | 75% | 
[3-t-Butylsulfonyl,2-(2-thienylmethyl)]propionyl-Thi-(Cycloheptylmethyl,dihydroxyboryl)methylamid [Beispiel 33] |  |  | 61%
CC(C)CC(NC(=O)[C@H](Cc1c[nH]cn1)NC(=O)C(Cc1cccc2ccccc12)Cc1cccc2ccccc12)B1OC(C)(C)C(C)(C)O1 (stereo partly drawn) [Beispiel 19, Bis-(1-Naphthylmethyl)acetyl-His-[3-methyl,l-(4,4,5,5-tetramethyl-1,3,2-dioxaborolan-2-yl)]butylamid] |  | 37% | 
[3-t-Butylsulfonyl,2-(2-thienylmethyl)]propionyl-Nva-(Cyclohexylmethyl,dihydroxyboryl)methylamid [Beispiel 30] |  |  | 52%
CC(C)CC(=O)N[C@@H](Cc1ccccc1)C(=O)N[C@@H](Cc1c[nH]cn1)C(=O)NC(CC1CCCCC1)B1OC(C)(C)C(C)(C)O1 (stereo partly drawn) [Beispiel 3, Iva-Phe-His-[Cyclohexylmethyl,(4,4,5,5-tetramethyl-1,3,2-dioxaborolan-2-yl)]methylamid] |  | 61% | 
CC(C)CC(=O)N[C@@H](Cc1ccccc1)C(=O)N[C@@H](Cc1c[nH]cn1)C(=O)NC(CC1CCCCCC1)B1OC(C)(C)C(C)(C)O1 (stereo partly drawn) [Beispiel 18, Iva-Phe-His-[Cycloheptylmethyl,(4,4,5,5-tetramethyl-1,3,2-dioxaborolan-2-yl)]methylamid] |  | 36% | 
CC(C)CC(=O)N[C@@H](Cc1ccccc1)C(=O)N[C@@H](Cc1c[nH]cn1)C(=O)NC(CC1CCCCCCC1)B1OC(C)(C)C(C)(C)O1 (stereo partly drawn) [Beispiel 17, Iva-Phe-His-[Cyclooctylmethyl,(4,4,5,5-tetramethyl-1,3,2-dioxaborolan-2-yl)]methylamid] | 200 µM | 52% | 
Iva-Phe-His-(Cyclooctylmethyl,dihydroxyboryl)methylamid [Beispiel 24] |  |  | 78%
CC(C)CC(=O)N[C@@H](Cc1cccs1)C(=O)N[C@@H](Cc1c[nH]cn1)C(=O)NC(CC1CCCCC1)B1OC(C)(C)C(C)(C)O1 (stereo partly drawn) [Beispiel 4] |  | 96% | 
Iva-Phe-Nva-(Cyclooctylmethyl,dihydroxyboryl)methylamid [Beispiel 20] |  |  | 27%

Now from value to compound:

IC50 | activity at 100 µM | Restakt. bei 10^-4 M | Compound
100 µM | 49% |  | CC1(C)OB(C(CC2CCCCC2)NC(=O)[C@H](CC(N)=O)NC(=O)C(Cc2cccs2)CS(=O)(=O)C(C)(C)C)OC1(C)C (stereo partly drawn) [Beispiel 52, [3-t-Butylsulfonyl, 2-(2-thienylmethyl)]propionyl-Asn-[cyclohexylmethyl,(4,4,5,5-tetramethyl-1,3,2-dioxaborolan-2-yl)]-methylamid]
5 µM | 5% |  | CC(C)[C@H](NC(=O)C(Cc1cccc2ccccc12)CS(=O)(=O)C(C)(C)C)C(=O)NC(CC1CCCCC1)B1OC(C)(C)C(C)(C)O1 (stereo partly drawn) [Beispiel 51, [3-t-Butylsulfonyl, 2-(1-naphthylmethyl)]propionyl-Val-[cyclohexylmethyl,(4,4,5,5-tetramethyl-1,3,2-dioxaborolan-2-yl)]methylamid]
 |  | 41% | Iva-Phe-Nva-[Cyclohexylmethyl,[(N-B)-(2,2′-iminodiethanolato)-boryl]]methylamid [Beispiel 6]
100 µM | 49% |  | CC1(C)OB(C(Cc2ccccc2)NC(=O)[C@H](CC(N)=O)NC(=O)C(Cc2ccccc2)CS(=O)(=O)C(C)(C)C)OC1(C)C (stereo partly drawn) [Beispiel 45, (2-Benzyl,3-t-butylsulfonyl)propionyl-Asn-[Benzyl,(4,4,5,5-tetramethyl-1,3,2-dioxaborolan-2-yl)]methylamid]
 | 46% |  | CCC[C@H](NC(=O)C(Cc1cccs1)CS(=O)(=O)C(C)(C)C)C(=O)NC(CC1CCCCCC1)B1OC(C)(C)C(C)(C)O1 (stereo partly drawn) [Beispiel 40, [3-t-Butylsulfonyl,2-(2-thienylmethyl)]propionyl-Nva-[Cycloheptylmethyl,(4,4,5,5-tetramethyl-1,3,2-dioxaborolan-2-yl)]methylamid]
 |  | 35% | Iva-Phe-Nva-[Cycloundecylmethyl, (4,4,5,5-tetramethyl-1,3,2-dioxaborolan-2-yl)]methylamid [Beispiel 13]
40 µM | 45% |  | CCC[C@H](NC(=O)C(Cc1ccccc1)CS(=O)(=O)C(C)(C)C)C(=O)NC(B1OC(C)(C)C(C)(C)O1)C1CCCCCC1 (stereo partly drawn) [Beispiel 46]
60 µM | 32% |  | CCC[C@H](NC(=O)C(Cc1cccc2ccccc12)CS(=O)(=O)C(C)(C)C)C(=O)NC(CC(CC)CC)B1OC(C)(C)C(C)(C)O1 (stereo partly drawn) [Beispiel 48, [3-t-Butylsulfonyl,2-(1-naphthylmethyl)]propionyl-Nva-[3-Ethyl,1-(4,4,5,5-tetramethyl-1,3,2-dioxaborolan-2-yl)]pentylamid]
 | 72% |  | CCC[C@H](NC(=O)C(Cc1ccccc1)CS(=O)(=O)C(C)(C)C)C(=O)NC(Cc1ccccc1)B1OC(C)(C)C(C)(C)O1 (stereo partly drawn) [Beispiel 44]
 | 35% |  | CCC[C@H](NC(=O)C(Cc1cccc2ccccc12)CS(=O)(=O)C(C)(C)C)C(=O)NC(CC(C)C)B1OC(C)(C)C(C)(C)O1 (stereo partly drawn) [Beispiel 41, [3-t-Butylsulfonyl,2-(1-naphthylmethyl)]propionyl-Nva-[3-methyl,1-(4,4,5,5-tetramethyl-1,3,2-dioxaborolan-2-yl)]butylamid]
10 µM | 16% |  | CCC[C@H](NC(=O)C(Cc1cccc2ccccc12)CS(=O)(=O)C(C)(C)C)C(=O)NC(CC1CCCC1)B1OC(C)(C)C(C)(C)O1 (stereo partly drawn) [Beispiel 47, [3-t-Butylsulfonyl,2-(1-naphthylmethyl)]propionyl-Nva-[Cyclopentylmethyl,(4,4,5,5-tetramethyl-1,3,2-dioxaborolan-2-yl)]methylamid]

— patent publication EP0354522A1, “Use of alpha-aminoboronic acid derivatives in prevention and treatement of viral diseases” (HOECHST AKTIENGESELLSCHAFT, priority 1988, dated 1990)
